# Source: patent US8334258B2, “Method for induction and enhancement of apoptosis in tumor cells” (Georg-August-Universität Göttingen Stiftung Öffentlichen …, priority 2006, dated 2012)
# Square brackets hold non-standard residues; d marks the D form. pGlu = O=C1CC[C@@H](C(=O)O)N1
# Legend:
# cancer cells = details: Gründker et al. 2004; cited from earlier work
# [1] = test system: MCF-7 breast cancer cell line; experiment: Apoptosis assay, flow cytometric analysis of DNA degradation (propidium iodide); format: cell-based, human; details: MCF-7, FIG. 1 (B)
substance,measurement,setting,value
[D-Lys^6]GnRH-II ([pGlu]HWSH[dK]WYPG-NH2; SMILES NCCCC[C@@H](NC(=O)[C@H](Cc1c[nH]cn1)NC(=O)[C@H](CO)NC(=O)[C@H](Cc1c[nH]c2ccccc12)NC(=O)[C@H](Cc1c[nH]cn1)NC(=O)[C@@H]1CCC(=O)N1)C(=O)N[C@@H](Cc1c[nH]c2ccccc12)C(=O)N[C@@H](Cc1ccc(O)cc1)C(=O)N1CCC[C@H]1C(=O)NCC(N)=O) [GnRH-II agonist],antiproliferative effects after GnRH-I receptor knock-out,cancer cells,still existing
same,induction of apoptotic cell death by GnRH-II agonist,[1],did not induce apoptotic cell death
